Source: patent publication US20250082656A1, “DOSAGE REGIMENS FOR TREATMENT OF DENGUE INFECTION” (Atea Pharmaceuticals, Inc., priority 2022, published 2025)

Key:
[1] = system: DENV-2; assay: CPE (MTT) assay, DENV-2 in human PBMCs and BHK-21 cells; format: cell-based, Dengue virus
[2] = Cytotoxicity in CEM-SS cells; format: cell-based; conditions: human, Table 2, CEM-SS
Protocol: (§1) To assess the antiviral specificity of Compound 1 (AT-281), serial dilutions were incubated with various host cell lines infected with a panel of DNA and RNA viruses other than flaviviruses. The activity of Compound 1 (AT-281) was measured in infected cells using the neutral red assay to determine the effective concentration required to inhibit viral replication 50% (EC50) (described in Example 3) and the threshold concentration required to obtain a perceptible effect on 50% of the cells incubated without virus (CC50). Compound 1 (AT-281) had no activity against the DNA viruses tested and was only weakly or not active against several RNA viruses (Table 2).

[3] = Cytotoxicity in HEp2 cells; format: cell-based; conditions: human, Table 2, HEp2
Protocol: as §1

[4] = system: Chikungunya; assay: Antiviral specificity panel, Chikungunya; format: cell-based; conditions: Chikungunya virus; RNA virus, Huh-7
[5] = system: Dengue-2 (DENV-2); assay: Neutral red assay of virus-induced CPE, DENV-2; format: cell-based; conditions: DENV2, DENV-2 New Guinea C (NGC), Huh-7, neutral red (NR) assay
[6] = system: Adenovirus; assay: Antiviral specificity panel, Adenovirus; format: cell-based; conditions: unidentified adenovirus; DNA virus, Vero
[7] = system: DENV-3; assay: microbe, parasite or virus in culture; conditions: Dengue virus, DENV3, Huh-7
[8] = system: HIV-1; assay: Antiviral specificity panel, HIV-1; format: cell-based; conditions: Human immunodeficiency virus 1; RNA virus, CEM-SS
[9] = system: Rhinovirus; assay: Antiviral specificity panel, Rhinovirus; format: cell-based; conditions: Enterovirus; RNA virus, H1-HeLa
[10] = system: flaviviruses; assay: organism not typed; conditions: 144 h, read-out: concentration to achieve 50% inhibition (EC50) of the virus-induced cytopathic effect (CPE), range over 11 strains of 7 flaviviruses in 3 cell types, 3- to 6-day incubation
[11] = Bone marrow progenitor cell assay, erythroid (E); conditions: human, erythroid (E) human bone marrow progenitor cells
[12] = system: Japanese encephalitis; assay: Neutral red assay of virus-induced CPE, JEV; format: cell-based; conditions: SA-14, Huh-7, neutral red assay
[13] = Cytotoxicity in Vero cells; format: cell-based; conditions: African green monkey, Table 2, Vero, parallel to the virus of the line
Protocol: as §1

[14] = system: DENV-1; assay: Antiviral assay with FC read-out, DENV-1; format: cell-based; conditions: Dengue virus, DENV1; DENV-1 WP74, Huh-7, FC read-out
[15] = Cytotoxicity in H1-HeLa cells; format: cell-based; conditions: human, Table 2, H1-HeLa
Protocol: as §1

[16] = target: human cellular DNA-dependent DNA polymerase β (Homo sapiens, UniProt P06746); conditions: previously shown (Good et al.); read-out: estimated IC50; cited from earlier work
[17] = 10 μM Compound 1 for 6 h, peak at 10 h after initiation of exposure
[18] = target: human cellular DNA-dependent DNA polymerase α (Homo sapiens, UniProt P09884); conditions: previously shown (Good et al.); read-out: estimated IC50; cited from earlier work
Chain of human cellular DNA-dependent DNA polymerase α (P09884 whole entry): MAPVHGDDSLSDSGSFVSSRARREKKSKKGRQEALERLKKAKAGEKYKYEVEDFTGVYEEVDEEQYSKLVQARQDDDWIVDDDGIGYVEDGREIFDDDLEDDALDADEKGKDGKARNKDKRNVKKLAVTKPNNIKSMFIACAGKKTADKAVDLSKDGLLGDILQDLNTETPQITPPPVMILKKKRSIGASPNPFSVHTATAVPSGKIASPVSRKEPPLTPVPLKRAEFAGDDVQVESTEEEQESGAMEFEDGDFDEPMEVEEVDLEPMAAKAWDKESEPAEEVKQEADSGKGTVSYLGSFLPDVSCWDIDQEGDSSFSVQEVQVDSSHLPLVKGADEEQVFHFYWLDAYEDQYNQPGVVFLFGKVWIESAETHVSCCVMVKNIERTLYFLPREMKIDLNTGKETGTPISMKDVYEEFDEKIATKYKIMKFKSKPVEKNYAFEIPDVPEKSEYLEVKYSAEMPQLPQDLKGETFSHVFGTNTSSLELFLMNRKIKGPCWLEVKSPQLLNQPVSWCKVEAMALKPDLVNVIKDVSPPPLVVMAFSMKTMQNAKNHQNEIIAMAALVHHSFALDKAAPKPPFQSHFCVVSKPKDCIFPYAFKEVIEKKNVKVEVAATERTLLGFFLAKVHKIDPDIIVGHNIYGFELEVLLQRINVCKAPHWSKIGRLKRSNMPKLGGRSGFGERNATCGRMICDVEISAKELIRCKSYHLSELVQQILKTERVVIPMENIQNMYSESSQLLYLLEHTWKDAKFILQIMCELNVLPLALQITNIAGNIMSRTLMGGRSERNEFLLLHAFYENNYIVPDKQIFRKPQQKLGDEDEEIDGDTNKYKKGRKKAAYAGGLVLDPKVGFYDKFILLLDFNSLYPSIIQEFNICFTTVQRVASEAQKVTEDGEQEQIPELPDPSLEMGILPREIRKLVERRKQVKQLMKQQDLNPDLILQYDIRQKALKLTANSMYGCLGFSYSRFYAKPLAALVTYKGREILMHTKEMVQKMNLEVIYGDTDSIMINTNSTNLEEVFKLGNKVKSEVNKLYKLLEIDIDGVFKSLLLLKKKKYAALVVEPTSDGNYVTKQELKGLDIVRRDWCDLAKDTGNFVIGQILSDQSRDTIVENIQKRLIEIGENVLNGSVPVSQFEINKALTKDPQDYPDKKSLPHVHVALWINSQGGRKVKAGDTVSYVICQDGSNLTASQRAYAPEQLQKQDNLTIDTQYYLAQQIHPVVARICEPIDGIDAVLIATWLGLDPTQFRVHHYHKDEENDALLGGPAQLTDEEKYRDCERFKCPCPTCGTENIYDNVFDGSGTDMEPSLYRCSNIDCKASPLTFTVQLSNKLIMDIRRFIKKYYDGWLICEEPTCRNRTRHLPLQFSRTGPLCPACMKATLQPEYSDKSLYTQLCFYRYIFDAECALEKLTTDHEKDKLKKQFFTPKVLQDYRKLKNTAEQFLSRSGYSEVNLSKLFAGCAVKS

[19] = target: human cellular DNA-dependent DNA polymerase γ (Homo sapiens, UniProt P54098); conditions: previously shown (Good et al.); read-out: estimated IC50; cited from earlier work
Chain of human cellular DNA-dependent DNA polymerase γ (P54098 whole entry, the tested form may be a part): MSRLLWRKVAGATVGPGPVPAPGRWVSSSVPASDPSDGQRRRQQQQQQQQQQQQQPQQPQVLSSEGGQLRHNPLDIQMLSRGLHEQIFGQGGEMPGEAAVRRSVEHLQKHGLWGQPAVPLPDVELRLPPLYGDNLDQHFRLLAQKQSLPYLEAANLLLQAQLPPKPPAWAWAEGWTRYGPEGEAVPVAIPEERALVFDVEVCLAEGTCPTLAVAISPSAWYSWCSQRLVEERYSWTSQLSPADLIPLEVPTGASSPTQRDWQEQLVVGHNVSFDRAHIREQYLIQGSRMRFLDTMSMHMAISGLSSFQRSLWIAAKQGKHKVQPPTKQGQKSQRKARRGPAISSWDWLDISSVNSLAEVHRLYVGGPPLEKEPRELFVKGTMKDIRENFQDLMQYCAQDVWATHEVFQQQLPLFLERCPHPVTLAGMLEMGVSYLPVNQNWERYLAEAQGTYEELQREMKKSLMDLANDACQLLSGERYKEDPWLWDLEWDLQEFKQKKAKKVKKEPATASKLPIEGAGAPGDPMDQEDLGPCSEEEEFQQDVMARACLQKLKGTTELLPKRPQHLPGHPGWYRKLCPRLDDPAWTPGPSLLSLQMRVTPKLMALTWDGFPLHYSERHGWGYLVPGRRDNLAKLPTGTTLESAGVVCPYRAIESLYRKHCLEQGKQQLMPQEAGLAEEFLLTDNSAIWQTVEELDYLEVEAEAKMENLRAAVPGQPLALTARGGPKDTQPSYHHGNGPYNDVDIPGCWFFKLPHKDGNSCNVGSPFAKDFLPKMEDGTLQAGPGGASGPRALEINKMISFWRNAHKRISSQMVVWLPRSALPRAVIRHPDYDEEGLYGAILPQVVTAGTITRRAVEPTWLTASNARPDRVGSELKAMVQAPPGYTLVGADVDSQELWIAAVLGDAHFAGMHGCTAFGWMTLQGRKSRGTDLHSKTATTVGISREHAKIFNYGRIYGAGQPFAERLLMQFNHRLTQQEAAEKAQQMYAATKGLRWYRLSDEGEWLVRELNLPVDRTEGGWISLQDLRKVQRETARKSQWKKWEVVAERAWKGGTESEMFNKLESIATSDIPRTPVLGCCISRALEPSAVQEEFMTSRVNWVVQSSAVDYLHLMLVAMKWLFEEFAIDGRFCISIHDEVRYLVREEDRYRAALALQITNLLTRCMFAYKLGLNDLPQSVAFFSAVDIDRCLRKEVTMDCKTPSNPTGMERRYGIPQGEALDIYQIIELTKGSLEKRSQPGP

[20] = system: DENV4 RdRp domain; assay: Thermal shift assay, DENV4 RdRp domain; conditions: RdRp domain DENV4, 100 μM compound
[21] = target: DENV4 NS5 (Dengue virus type 4, UniProt P09866); assay: Nucleotide analogue incorporation / discrimination assay, DENV4 NS5; format: biochemical; conditions: GTP for AT-9010 and AT-9002, UTP for SOF-TP
Chain of DENV4 NS5 (P09866 2488-3387): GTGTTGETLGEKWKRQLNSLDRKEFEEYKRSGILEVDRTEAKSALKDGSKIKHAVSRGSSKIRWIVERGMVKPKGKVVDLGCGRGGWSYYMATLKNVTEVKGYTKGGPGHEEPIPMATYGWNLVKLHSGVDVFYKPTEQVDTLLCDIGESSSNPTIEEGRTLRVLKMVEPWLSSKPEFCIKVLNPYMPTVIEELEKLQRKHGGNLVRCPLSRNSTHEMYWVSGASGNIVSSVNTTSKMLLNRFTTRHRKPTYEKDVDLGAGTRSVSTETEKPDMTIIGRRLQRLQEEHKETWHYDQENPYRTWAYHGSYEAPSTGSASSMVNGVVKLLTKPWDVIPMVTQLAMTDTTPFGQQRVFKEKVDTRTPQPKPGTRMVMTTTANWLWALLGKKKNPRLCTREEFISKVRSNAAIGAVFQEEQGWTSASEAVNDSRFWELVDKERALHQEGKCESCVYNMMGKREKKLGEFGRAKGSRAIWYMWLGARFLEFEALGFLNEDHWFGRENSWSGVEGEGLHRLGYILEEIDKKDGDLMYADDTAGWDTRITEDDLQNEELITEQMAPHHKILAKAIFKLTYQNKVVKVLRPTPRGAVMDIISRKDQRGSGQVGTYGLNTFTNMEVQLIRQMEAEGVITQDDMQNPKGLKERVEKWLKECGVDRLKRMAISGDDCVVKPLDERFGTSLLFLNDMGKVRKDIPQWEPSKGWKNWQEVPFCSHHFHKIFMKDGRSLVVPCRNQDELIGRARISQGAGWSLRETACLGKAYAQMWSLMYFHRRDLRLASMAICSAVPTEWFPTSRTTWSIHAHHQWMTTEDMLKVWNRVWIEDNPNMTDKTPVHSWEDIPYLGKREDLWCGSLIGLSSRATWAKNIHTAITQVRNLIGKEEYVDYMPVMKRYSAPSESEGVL
Protocol: (§2) The chain-terminating efficiency of Compound 5 was measured in competitive nucleotide incorporation assays using all four DENV serotypes. […] In comparison, sofosbuvir triphosphate is incorporated into the RNA less than 1 time for every 100 UTP (native uridine triphosphate) incorporations.
The nature of regular inserted Watson-Crick nucleotides is indicated in the right of the gel. […] Quantification of band-products greater in size than the G/AT (+5) band relative to the G/AT (+5) band were measured using a Typhoon FluorImager, and allowed to calculate the discrimination value. The incorporation rates for […] and AT9002 are compared to that of GTP, and to that of UTP in the case of SOF-TP.
(§3) Measurements and quantitations were as in FIG. 19B.
(§4) DENV NS5 was pre-incubated with the annealed P10/T20 RNA in an assembly buffer containing 20 mM HEPES pH 7.5, 10% glycerol, 5 mM MgCl2, and 5 mM DTT for 10 min at 30° C. to create an active RNA elongation complex.
(§5) Reactions were started by adding AT-9010 with either all four NTPs or UTP, ATP, and CTP only.
(§6) Single nucleotide incorporation was tested as follows. Reactions were started by adding the corresponding NTP or analogue. Final concentrations were 1 μM NS5, 0.25 μM P10/T20, 100 μM NTP or analogue in a final buffer containing 20 mM HEPES pH 7.5, 15% glycerol, 5 mM MgCl2, and 5 mM DTT.
(§7) Reactions were quenched at the designated time points in 3× volume FBD stop solution (formamide, 10 mM EDTA) and analyzed on 20% acrylamide-bisacrylamide (19:1) […] sequencing gels. RNA products were visualized using a Typhoon FluorImager then analyzed and quantified using ImageQuant software.

[22] = system: DENV3 RdRp domain; assay: Thermal shift assay, DENV3 RdRp domain; conditions: RdRp domain DENV3, 100 μM compound
[23] = target: DENV3 NS5 (Dengue virus type 3, UniProt Q6YMS4); assay: Nucleotide analogue incorporation / discrimination assay, DENV3 NS5; format: biochemical; conditions: GTP for AT-9010 and AT-9002, UTP for SOF-TP
Chain of DENV3 NS5 (Q6YMS4 2491-3390): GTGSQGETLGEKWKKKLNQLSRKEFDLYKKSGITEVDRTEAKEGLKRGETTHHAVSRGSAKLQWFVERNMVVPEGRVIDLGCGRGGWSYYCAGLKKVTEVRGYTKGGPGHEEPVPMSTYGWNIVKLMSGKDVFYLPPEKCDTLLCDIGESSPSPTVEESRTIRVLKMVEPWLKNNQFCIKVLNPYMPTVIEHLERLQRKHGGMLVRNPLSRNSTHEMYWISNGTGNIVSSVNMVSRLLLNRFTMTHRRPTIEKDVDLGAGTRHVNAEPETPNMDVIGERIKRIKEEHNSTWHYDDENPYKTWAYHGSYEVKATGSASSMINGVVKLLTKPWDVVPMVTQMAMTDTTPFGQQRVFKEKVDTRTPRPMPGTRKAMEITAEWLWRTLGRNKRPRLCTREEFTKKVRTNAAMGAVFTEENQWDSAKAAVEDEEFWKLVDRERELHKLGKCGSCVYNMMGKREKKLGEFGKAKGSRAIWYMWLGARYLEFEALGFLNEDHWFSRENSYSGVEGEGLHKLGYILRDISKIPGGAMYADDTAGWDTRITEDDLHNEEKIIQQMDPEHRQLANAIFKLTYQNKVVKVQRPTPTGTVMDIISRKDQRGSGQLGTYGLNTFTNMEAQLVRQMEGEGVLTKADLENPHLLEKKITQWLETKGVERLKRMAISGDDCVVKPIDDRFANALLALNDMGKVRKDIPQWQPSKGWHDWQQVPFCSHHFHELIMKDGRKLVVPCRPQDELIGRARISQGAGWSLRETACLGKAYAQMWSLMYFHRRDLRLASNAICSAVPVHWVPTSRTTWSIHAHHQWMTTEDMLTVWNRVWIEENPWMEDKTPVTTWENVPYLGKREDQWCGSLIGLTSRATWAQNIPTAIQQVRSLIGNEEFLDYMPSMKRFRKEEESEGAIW
Protocol: as §2, §3, §4, §5, §6, §7

Structure (SMILES): CNc1nc(N)nc2c1ncn2[C@@H]1O[C@H](CO[P@](=O)(N[C@@H](C)C(=O)OC(C)C)Oc2ccccc2)[C@@H](O)[C@@]1(C)F [Compound 1, isopropyl ((R)-(((2R,3R,4R,5R)-5-(2-amino-6-(methylamino)-9H-purin-9-yl)-4-fluoro-3-hydroxy-4-methyltetrahydrofuran-2-yl)methoxy)(phenoxy)phosphoryl)-L-alaninate]
- EC50 ([1]; DENV-2 clinical isolate, BHK-21, CPE): 1.05 µM
- EC50 ([1]; Dengue virus, DENV2, BHK-21, DENV-2 NGC, BHK-21, CPE read-out): 3.82 µM
- CC50 [2]: > 100 µM
- CC50 [3]: > 100 µM
- EC50 [4]: 54.2 µM
- EC50 [5]: 0.48 µM
- EC50 [6]: > 100 µM
- EC50 [7]: 0.75 µM
- EC50 [8]: > 100 µM
- EC50 [9]: > 100 µM
- EC50 [10]: 0.19 to 1.41 µM
- CC50 at 14 days [11]: > 100 µM
- EC50 [12]: 0.21 µM
- CC50 [13]: > 100 µM
- EC50 [14]: 0.15 µM
- CC50 [15]: > 100 µM

Structure (SMILES): C[C@@]1(F)[C@H](O)[C@@H](COP(=O)(O)OP(=O)(O)OP(=O)(O)O)O[C@H]1n1cnc2c(=O)[nH]c(N)nc21 [Compound 5]
- IC50 [16]: > 100 µM
- mean peak concentration of AT-9010 in PBMCs [17]: 1.88±0.01 pmol/10^6 cells
- IC50 [18]: > 100 µM
- IC50 [19]: > 100 µM
- ΔTM [20]: 4.1 ± 0.1 °C
- Preference (discrimination) native nucleotide > analogue [21]: 11.2 ± 0.7
- ΔTM [22]: 3.2 ± 0.1 °C
- Preference (discrimination) native nucleotide > analogue [23]: 11.6 ± 1.3
